Results on three molecules are retold here after patent US20140080847A1, “Compositions and Methods for Affecting Energy Balance, Body Composition, Fitness, and Well-Being” (OEJM Products Holdings, LLC, priority 2012, published 2014).

A short description of data set [1]: Acute toxicity and tolerance (MTD) of a single oral dose in New Zealand white rabbits. The class given is in vivo, rabbit. The conditions noted are these: both sexes, New Zealand white, in vivo; rabbit, single oral dose. How it is done:
(§1) The maximum tolerated dose (MTD) of orally administered 1,3-DMPA and 1,4-DMPA was determined in New Zealand white rabbits and Wistar rats.
(§2) Determination of MTD of orally-administered 1,3-DMPA in New Zealand white rabbits: Twenty-four rabbits (twelve male, twelve female) were quarantined for at least seven days and then were randomly divided into four groups with six animals (3 male and 3 female) in each group. […] Animals were observed daily for fourteen days following administration. Each animal's body weight, food intake, mortality, and natural orifices were monitored. Clinical observations included skin condition, gait, movement, neurological disorders, eye condition, feces, convulsions, tremors, activity rate, restlessness, grooming, sleep, aggressiveness, salivation, diarrhea, respiration, appetite, thirst and urine conditions. Other observations included fur condition, mucous membranes, presence or absence of secretions and excretions and autonomic activity, lacrimation, piloerection, pupil size, posture, arched back, distended abdomen, fur, mucous membrane, presence or absence of secretions, tail elevation, motor activity, urination and defecation, and response to handling as well as the presence of clonic or tonic movements, repetitive circling, bizarre behavior, self-mutilation and walking backwards. At the conclusion of the fourteen day monitoring period, gross pathological examination was carried out on all animals. Heart, lung, liver, kidneys, spleen, stomach, large intestine, small intestine, brain and skin were examined for any macroscopic lesions.
(§3) Determination of MTD of orally-administered 1,4-DMPA in New Zealand white rabbits: Thirty rabbits (fifteen male, fifteen female) were quarantined for at least seven days and then were randomly divided into five groups with six animals (3 male and 3 female) in each group. […] Animals were observed daily for fourteen days following administration. Each animal's body weight, food intake, mortality, and natural orifices were monitored. As above, clinical observations included observation of natural orifices for any abnormal secretions and monitoring for the presence or absence of secretions and excretions, monitoring of mucous membranes, fur and skin condition, mortality, gait, posture, arched back, distended abdomen, movement and motor activity, neurological disorders, eye condition and pupil size, feces, convulsions, tremors, tail elevation, activity rate, restlessness, grooming, sleep, aggressiveness, salivation, diarrhea, respiration, appetite, thirst and urine conditions, autonomic activity, lacrimation, piloerection, response to handling, as well as the presence of clonic or tonic movements, repetitive circling, bizarre behavior, self-mutilation and walking backwards. At the conclusion of the fourteen day monitoring period, gross pathological examination was carried out on all animals. Heart, lung, liver, kidneys, spleen, stomach, large intestine, small intestine, brain and skin were examined for any macroscopic lesions.

In data set [2] the test system is New Zealand white rabbits. Described as above. The class given is in vivo, rabbit. How it is done: as §1, §2, §3
A short description of data set [3]: Acute toxicity and tolerance (MTD) of a single oral dose in Wistar rats. The class given is in vivo, rat. The conditions noted are these: both sexes, Wistar, in vivo; rat, single oral dose. How it is done:
as §1
(§4) Determination of MTD of orally-administered 1,3-DMPA in Wistar rats: The same general methods and procedures were followed as described above. This study involved forty animals randomly divided into four groups of ten animals (five male, five female) in each group. […] The MTD of a single oral dose of 1,3-DMPA was determined to be between 125 mg/kg and 250 mg/kg.
as §4, with “1,4-DMPA” for “1,3-DMPA”, “group. The groups were treated as follows: Group I (vehicle control—water), Group II (75 mg/kg), Group III (150 mg/kg), and Group IV (300 mg/kg). […] Gross pathological changes were not observed in the treated groups during necropsy.” for “group.”, “150” for “125”, “300 mg/kg in Wistar rats.” for “250 mg/kg.”

Data set [4] relates to Wistar rats. The description is as above. The class given is in vivo, rat. How it is done: as §1, §4
as §4, with “1,4-DMPA” for “1,3-DMPA”, “group. The groups were treated as follows: Group I (vehicle control—water), Group II (75 mg/kg), Group III (150 mg/kg), and Group IV (300 mg/kg). […] Gross pathological changes were not observed in the treated groups during necropsy.” for “group.”, “150” for “125”, “300 mg/kg in Wistar rats.” for “250 mg/kg.”

Data set [5] deals with human(s). Kind of data set: Comparative effects of 1,3-DMPA and 1,4-DMPA compounds in humans (self-administration). Type of data set: in vivo. How it is done: The compounds 1,3-DMPA, racemic 1,4-DMPA, (R)-1,4-DMPA, and (S)-1,4-DMPA were administered to human(s). A non-smoking person of normal weight ingested 40 mg 1,3-DMPA as part of a dietary supplement (dietary ingredients: arginine α-ketoglutarate, creatine monohydrate, β-alanine, caffeine, 1,3-dimethylpentylamine HCL, schisandra cinensis (berry) extract (standardized for schizandrol A)); powder form), self-administered daily for at least seven days. […] To compare the effects of 1,3-DMPA to the effects of 1,4-DMPA, this individual later ingested 1,4-DMPA (racemic) for at least seven days at a dose of 60 mg per day, combined with 250 mg caffeine.
To compare the effects of (R)-1,4-DMPA, and (S)-1,4-DMPA, the individual described above ingested each enantiomer separately. Starting dose was ˜20 mg per day, which was increased to 30 mg per day if treatment was continued. Doses were combined with 250 mg caffeine as described above. […] The dose was increased to 30 mg per day; the total duration of treatment was at least three weeks. […] Ingestion of (S)-1,4-DMPA (25-30 mg per day) with caffeine produced different effects. […] The individual ceased self-administering (S)-1,4-DMPA after several days of experiencing the latter effects.

Data set [6] deals with cats and dogs. Particulars: early animal studies; cited from earlier work.
The mark [7] stands for this setting: male, 60 mg per day with 250 mg caffeine, at least seven days.
[8] abbreviates: male, 20 then 30 mg per day with 250 mg caffeine, at least three weeks.
[9] abbreviates: male, starting dose 20 mg per day with 250 mg caffeine.
The mark [10] stands for this setting: male, 25-30 mg per day with caffeine, several days.

One may read the MTD as the highest dose tested that stayed within the study's limit of toxicity. The low end stands for a narrow tolerated range, the high end for a wide tolerated range. Broadly, the LD50 is the dose expected to kill half of the subjects tested. Consider `CC(C)CCC(C)N` (racemic) [1,4-DMPA, 1,4-dimethylpentylamine], for which the maximal tolerated dose (MTD) at 14 days in data set [1] was 250 to 350 mg/kg. In data set [2] (rabbit, 250 mg/kg and 350 mg/kg oral, all animals), the clinical signs result was “tremors and tachycardia”. For the same molecule, the body weight entry in data set [2] (rabbit, 350 mg/kg oral (Group V), study period) is “variation in body weight”. Moreover, in data set [2] (rabbit, 350 mg/kg oral, died after 36 hours), the “gross pathology of the animal that died” value was “dark reddish discoloration of the lung suggesting congestion, slight reddish discoloration of the trachea, and mild petechial hemorrhages in the liver”. Further, the mortality entry in data set [2] (rabbit, 350 mg/kg oral, six animals per group, within 36 hours) was “one mortality”. The mortality result in data set [2] (rabbit, 50, 125, 250 mg/kg oral) is listed as “No mortalities”. In addition, in data set [2] (rabbit, 50, 125, 250 mg/kg oral (all groups except Group V), 14 days, vs vehicle control), the mean body weight result was “consistent increase”. In addition, the mean food intake entry in data set [2] (rabbit, all treatment groups 50-350 mg/kg, first 48 hours post treatment, vs control) is reported as “reduced”. For the same molecule, the gross pathological changes result in data set [2] (rabbit, treated groups 50-350 mg/kg, except the animal that died) was “No gross pathological changes were observed”. Besides, in data set [2] (single-dose rat and rabbit studies), the “toxicity and tolerance compared with 1,3-DMPA” value was “less toxic and better tolerated than 1,3-DMPA”. In data set [3], this molecule displayed an LD50 at 14 days of 465 mg/kg and an MTD at 14 days of 150 to 300 mg/kg. Further, the additional clinical signs entry in data set [4] (rat, 150 mg/kg and 300 mg/kg oral) was “Tremors and convulsions”. The “examination of the animals that died” value in data set [4] (rat, 300 mg/kg oral, died 4.5 hours post dosing) was “right median lobe consolidation and red foci on lungs, mild reddish discoloration of adrenals and spleen, mild enlargement of the spleen and glandular mucosa of the stomach showing hyperemia”. Moreover, the mortality result in data set [4] (rat, 300 mg/kg oral, ten animals per group, within 4.5 hours) is recorded as “Four mortalities”. Also, in data set [4] (rat, 75, 150, 300 mg/kg oral, study period, vs control), the mean body weight result is “consistently increased”. Also, the mortality entry in data set [4] (rat, 75 and 150 mg/kg oral) was “No mortalities”. For the same molecule, the clinical signs result in data set [4] (rat, all treated animals 75, 150, 300 mg/kg oral) was “piloerection, tail elevation, nasal discharge, tachycardia and hyperactivity”. Moreover, the “gross pathological changes at necropsy” value in data set [4] (rat, treated groups 75-300 mg/kg oral) was “not observed”. In data set [4] (rat, treatment groups 75, 150, 300 mg/kg oral, first 48 hours post administration), the feed consumption result was “consume less feed”. In data set [5] (setting [7]), the appetite entry is listed as “decreased appetite”, the “effect on heart rate compared with prior 1,3-DMPA” value is recorded as “reduced effect on heart rate”, the “jitteriness or anxiousness compared with prior 1,3-DMPA” value is given as “noticeably reduced feelings of jitteriness or anxiousness” and the “level of CNS stimulation compared with 1,3-DMPA” value is reported as “about the same level of CNS stimulation”. In addition, in data set [5] (setting [7]), the mood and vigor result is “improved mood and vigor”; the “nature of the stimulatory effect” value was “increased focus and alertness and reduced fatigue”; the physical performance result is listed as “improved physical performance”. In addition, the fat mass entry in data set [5] (reports of individuals ingesting the compound) is given as “reduction in fat mass”. Also, the vasopressor activity entry in data set [6] was “possesses vasopressor activity”.

Turning to `CC(C)CC[C@@H](C)N` [(R)-1,4-DMPA, (R)-1,4-dimethylpentylamine], in data set [5] (setting [8]), the CNS stimulation result is “CNS stimulation, including feelings of alertness, focus, and reduced fatigue”; the appetite entry is on record as “decreased appetite”; the “heart rate, jitteriness, nervousness, anxiety” value is reported as “not associated with a noticeable increase in heart rate, jitteriness, nervousness, or anxiety”; the mood result is on record as “improved mood”. In addition, the physical performance entry in data set [5] (setting [8]) was “improved physical performance”. Also, in data set [5] (setting [9]), the CNS stimulant effect result is reported as “produced CNS stimulant effect” and the “jitteriness or pressor effect” value is “little or no jitteriness or pressor effect”.

Regarding `CC(C)CC[C@H](C)N` [(S)-1,4-DMPA, (S)-1,4-dimethylpentylamine], in data set [5] (setting [10]), the “alertness and focus in comparison to (R)-1,4-DMPA” value was “lessened alertness and focus”; the “heart rate and restlessness in comparison to (R)-1,4-DMPA” value was “increased heart rate and restlessness”.
